What all share (assay): inhibition of tumour cell growth, NCI panel, 48 h
Experiment [1] has as its system UACC-257 melanoma.
The test system of experiment [2] is 786-0 renal.
In experiment [3] the test system is SK-MEL-5 melanoma.
In experiment [4] the test system is MDA-MB-435.
Experiment [5] has as its system HL-60(TB) leukemia.
For experiment [6], the system named is UACC-62 melanoma.
For experiment [7], the system named is OVCAR-4 ovarian.
In experiment [8] the test system is MDA-MB-231 breast.
For experiment [9], the system named is U251 CNS.
For experiment [10], the system named is NCI-H23 lung.
Experiment [11] has as its system HCT-116 colon.

Several values for one entry are separate records, joined by “and”; a condition that tells them apart may be missing. Identical values can stand only once.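 Cultured in 96-well plates, cells were exposed to test compound for 48 hours across five concentrations. GI50 = concentration required for 50% inhibition of growth. TGI denotes the concentration required for complete inhibition of growth.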

On to `COC(=O)C1(Cc2ccc3c(c2)CCC3)Cc2ccc3c(c2C1=O)CCC3` (stereo not given), for which the TGI was > 100 µM in experiment [1]; > 91.3 µM in [2]; 28.2 µM in experiment [3]; 6.13 µM in experiment [4]; 8.83 µM in experiment [5]; > 48.5 µM in experiment [6]. Moreover, the TGI in experiment [7] is > 66.7 µM; in [8], > 87.6 µM; in [9], > 69.6 µM; in [10], > 71.6 µM; in experiment [11], > 100 µM.

With `CC(O)C(CO)NC(=O)C1CSSCC(NC(=O)C(N)Cc2ccccc2)C(=O)NC(Cc2ccccc2)C(=O)NC(Cc2c[nH]c3ccccc23)C(=O)NC(CCCCN)C(=O)NC(C(C)O)C(=O)N1` (stereo not given), the TGI in experiment [1], in experiment [2], in experiment [3], in [4], in experiment [5] and in experiment [6] was > 100 µM throughout. In addition, the TGI in [7], in experiment [8], in experiment [9], in [10] and in [11] was > 100 µM throughout.

With `COc1ccc2c(c1)/C(=C\c1c(Cl)nc3n1CCS3)C(=O)N2`, the TGI in experiment [1] was determined as 25.8 µM; in experiment [2] it was 45.9 µM; in experiment [3] it was 17.2 µM; in experiment [4], 4.82 µM; in experiment [5] it was 17.2 µM; in [6], 16.3 µM. Further, the TGI was > 100 µM in experiment [7]; 27.2 µM in experiment [8]; 57.6 µM in [9]; 72.2 µM in experiment [10]; 25.5 µM in experiment [11].

`COc1cc(/C=C2\C(=O)N(c3cccc(NC(C)=O)c3)C(c3ccccc3)S2(=O)=O)cc(OC)c1OC` (stereo not given): the TGI in experiment [1] was > 100 µM; in experiment [2], > 100 µM; in experiment [3], > 100 µM; in experiment [4], > 100 µM; in experiment [5] it was 44.5 µM; in [6], > 100 µM. The TGI in experiment [7], in experiment [8], in experiment [9], in experiment [10] and in experiment [11] was > 100 µM throughout.

Take `CCO/N=C\c1ccc2oc(-c3ccccc3)cc(=O)c2c1`: the TGI is 66 µM in [1]; 17.7 µM in [2]; 5.54 µM in [3]; 2.49 µM in experiment [4]; 12.2 µM in experiment [5]; 33.9 µM in [6]. In addition, the TGI was > 85.9 µM in experiment [7]; 13.1 µM in [8]; 17.6 µM in experiment [9]; 9.05 µM in experiment [10]; 8.23 µM in experiment [11].

`C/C(Cc1ccc2c(c1)OCO2)=N\N=c1\sc2ccccc2n1C`: the TGI in experiment [1], in experiment [2], in [3], in experiment [4], in experiment [5] and in experiment [6] was > 100 µM each time. Besides, the TGI in experiment [7], in experiment [8], in [9], in [10] and in experiment [11] was > 100 µM throughout.

Turning to `Cc1[nH]n(-c2nc(-c3ccccc3)cc(=O)[nH]2)c(=O)c1CCO`, the TGI in experiment [1], in [2], in experiment [3], in [4], in experiment [5] and in [6] was > 100 µM throughout. Besides, the TGI in experiment [7], in [8], in [9], in experiment [10] and in experiment [11] was > 100 µM throughout.

In the case of `CC(C)(C)OC(=O)NC(CSCc1ccc(C(=O)c2ccccc2)cc1)C(=O)N1CCN(CCCCN2c3ccccc3Sc3cc(N=[N+]=[N-])ccc32)CC1` (stereo not given), the TGI in experiment [1], in [2], in experiment [3], in experiment [4], in experiment [5] and in experiment [6] was > 100 µM throughout. Further, the TGI in experiment [7], in experiment [8], in [9], in experiment [10] and in experiment [11] was > 100 µM throughout.

With `ClCCCN1CCN(CCCl)CC1`, the TGI is > 1000 µM in experiment [1]; 427 µM in experiment [2]; 647 µM in experiment [3]; > 930 µM in experiment [4]; 62.3 µM and 141 µM in experiment [5]; 92 µM in experiment [6]. Besides, the TGI was 430 µM in [7]; > 768 µM in experiment [8]; 543 µM in experiment [9]; 586 µM in experiment [10]; 747 µM in [11]. Further, the GI50 in [6] is 20 µM; in experiment [9] it was 79.6 µM; in experiment [10] it was 19.5 µM.

Turning to `N=c1oc2cc(O)ccc2cc1C(=O)Nc1ccccn1`, the TGI in experiment [1] was > 100 µM; in experiment [2], 39.3 µM; in experiment [3], > 100 µM; in experiment [4], > 100 µM; in experiment [5], > 100 µM; in experiment [6], > 100 µM. The TGI in experiment [7], in experiment [8], in experiment [9], in experiment [10] and in experiment [11] was > 100 µM each time.

For `Cc1cn(S(=O)(=O)c2ccccc2)c2c(OCc3ccccc3)cc([N+](=O)[O-])cc12`, the TGI in experiment [1], in [2], in [3], in [4], in [5] and in [6] was > 100 µM in each case. Besides, the TGI in [7], in [8], in [9], in [10] and in experiment [11] was > 100 µM each time.

With `CC(C)CC1c2[nH]c3ccccc3c2C[C@H]2C(=O)NC(Cc3c[nH]c4ccccc34)C(=O)N12` (stereo not given in full), the TGI in experiment [1] is 28.9 µM; in experiment [2] it was 40.2 µM; in [3], 26 µM; in experiment [4] it was 34.4 µM; in [5] it was 40.9 µM; in [6] it was 36 µM. In addition, the TGI is 63.8 µM in experiment [7]; 49.9 µM in [8]; 28.4 µM in experiment [9]; 40 µM in [10]; 25.7 µM in experiment [11].

Turning to `O=C1CCCC2=C1CC1=C(CCCC1=O)N2c1ccc(Cl)cc1`, the TGI in experiment [1], in experiment [2], in experiment [3], in experiment [4], in [5] and in experiment [6] was > 100 µM in each case. Also, the TGI in experiment [7], in experiment [8], in experiment [9], in [10] and in experiment [11] was > 100 µM each time.

With `CN1C/C(=C\c2cccs2)C2=NN(c3ccccc3)C(c3cccs3)C2C1` (stereo not given), the TGI in [1] was > 100 µM; in experiment [2] it was > 44.7 µM; in experiment [3], > 100 µM; in experiment [4], 3.86 µM; in experiment [5] it was 4.45 µM; in [6], > 100 µM. For the same molecule, the TGI in [7] was > 100 µM; in experiment [8] it was 98.7 µM; in [9], > 100 µM; in experiment [10] it was > 100 µM; in experiment [11], > 35.7 µM.

For the molecule `C(=N\NC1=NCCCCN1)/c1ccc2ccccc2c1`, the TGI in experiment [1] was 46.6 µM; in [2] it was 67.9 µM; in experiment [3], 31.3 µM; in experiment [4], 34.7 µM; in [5], 62.8 µM; in experiment [6] it was 79.8 µM. For the same molecule, the TGI in experiment [7] was > 100 µM; in [8] it was 65.9 µM; in experiment [9], 58.6 µM; in [10] it was > 100 µM; in experiment [11], > 100 µM.

As to `Cc1cccc2c(=O)c3cccc([C@H](C)C(=O)O)c3oc12`, the TGI in experiment [1], in [2], in [3], in [4], in experiment [5] and in experiment [6] was > 100 µM throughout. In addition, the TGI in experiment [7], in experiment [8], in [9], in experiment [10] and in experiment [11] was > 100 µM throughout.

For the molecule `Cc1ccc(C(=O)Nc2ccc(S(=O)(=O)O)c3cc(S(=O)(=O)O)cc(S(=O)(=O)O)c23)cc1NC(=O)c1cccc(NC(=O)Nc2cccc(C(=O)Nc3cc(C(=O)Nc4ccc(S(=O)(=O)O)c5cc(S(=O)(=O)O)cc(S(=O)(=O)O)c45)ccc3C)c2)c1`, the TGI in experiment [1], in experiment [2], in [3], in experiment [4], in experiment [5] and in experiment [6] was > 100 µM each time. For the same molecule, the TGI in experiment [7], in experiment [8], in [9], in experiment [10] and in experiment [11] was > 100 µM each time.

The values above are taken from PubChem BioAssay (NCI).
